In patent US9738932B2, “Biomarkers for cardiovascular side-effects induced by cox-2 inhibitory compounds” (FIRALIS SAS, priority 2005, dated 2017):

Experiments:
[1] = tested on: mRNA expression in cardiovascular tissues; assay: Affymetrix GeneChip mRNA expression profiling of monkey tissues (iliac vein, pulmonary vein, aorta, carotid artery, heart) after two-week oral-gavage treatment; conditions: iliac vein; group average (Vioxx without A60055)
Method: (§1) Administration of compounds. A two-week oral-gavage treatment with the Cox-2 specific inhibitor COX189 (Lumiracoxib®, Novartis) in comparison with rofecoxib (Vioxx®, Merck), and celecoxib (Celebrex®, Pharmacia/Pfizer), and with the nonselective NSAID, diclofenac (Voltaren®, Novartis) was performed. […] The test items were administered daily at doses of 100 mg/kg/day, except Vioxx® which was administered at 50 mg/kg/day.
(§2) Gene expression profiles. After a period of time (e.g., four weeks) of compound/drug administration, the treated animals are necropsied. 120 tissues are dissected and rapidly snap-frozen for genomics analysis. Organ samples are isolated for histopathological examinations and for gene expression localizations, such as by in situ hybridization.
(§3) Gene expression profiles have been generated using the Affymetrix microarray technology. (i) RNA extraction and purification: Briefly, total RNA was obtained by acid guanidinium thiocyanate-phenol-chloroform extraction (Trizol®, Invitrogen Life Technologies, San Diego, Calif.) from each frozen tissue section and the total RNA was then purified on an affinity resin (Rneasy®, Qiagen) according to the manufacturer's instructions. Total RNA was quantified by the absorbance at λ=260 nm (A260 nm) and the purity was estimated by the ratio A260 nm/A280 nm. Integrity of the RNA molecules was confirmed by non-denaturing agarose gel electrophoresis. RNA was stored at −80° C. until analysis. […] (ii) GeneChip® experiment: All GeneChip® experiments were conducted in the Genomics Factory EU following recommendations by the manufacturer of the GeneChip® system (Affymetrix, Expression Analysis Technical Manual (Affymetrix, Santa Clara, Calif., 2005). Human U133A genome arrays were used for transcript expression analysis. Double stranded cDNA was synthesized with a starting amount of approximately 5 μg full-length total RNA using the Superscript Choice System (Invitrogen Life Technologies) in the presence of a T7-(dT) 24 DNA oligonucleotide primer. Following synthesis, the cDNA was purified by phenol/chloroform/isoamyl alcohol extraction and ethanol precipitation. The purified cDNA was then transcribed in vitro using the BioArray® High Yield RNA Transcript Labeling Kit (ENZO) in the presence of biotinylated ribonucleotides form biotin labelled cRNA. The labelled cRNA was then purified on an affinity resin (Rneasy, Qiagen), quantified and fragmented. An amount of approximately 10 μg labelled cRNA was hybridized for approximately 16 hours at 45° C. to an expression probe array. The array was then washed and stained twice with streptavidin-phycoerythrin (Molecular Probes) using the GeneChip Fluidics Workstation 400 (Affymetrix). The array was then scanned twice using a confocal laser scanner (GeneArray Scanner®, Agilent) resulting in one scanned image. This resulting “.dat-file” was processed using the MASS program (Affymetrix) into a “.cel-file”. The “.cel file” was then transferred to tan Affymetrix GeneChip Laboratory Information Management System (LIMS) database, which is connected to a UNIX Sun Solaris server through a network filing system that allows for the average intensities for all probes cells (CEL file) to be downloaded into an Oracle database (NPGN). Raw data was converted to expression levels using a “target intensity” of 100. […] The data were checked for quality and loaded in the GeneSpring® software versions 5.0 (Silicon Genetics, Calif., US) for statistical analysis.
(§4) Quality control analysis of transcriptome data: The following quality measures were analysed for each sample: Scaling factor, background, percent present calls, AFFX-GAPDH 3′: AFFX-GAPDH 5′-ratio, AFFX-GAPDH 3′ variance, AFFX-Beta-actin 3′: AFFX-Beta-actin 5′-ratio.

[2] = tested on: mRNA expression in cardiovascular tissues; conditions: cynomolgus monkey, in vivo
Method: as §1, §2, §3, §4

Cc1ccc(-c2cc(C(F)(F)F)nn2-c2ccc(S(N)(=O)=O)cc2)cc1 [Celebrex]
2.3 fold: CD53 (203416_at) mRNA expression, Avg fold changes vs control [1] | CCL2 (216598_s_at) avg fold change vs control ([2]; 2 weeks)
3.2 fold: CD3D (213539_at) avg fold change vs control ([2]; 2 weeks)
1.4 fold: FCGR2A (203561_at) mRNA expression, Avg fold changes vs control [1] | HLA-DMA (217478_s_at) avg fold change vs control [2] | PLA2G4C (209785_s_at) avg fold change vs control [2] | CXCL9 (203915_at) avg fold change vs control ([2]; 2 weeks)
1.0 fold: FCGRT (218831_s_at) mRNA expression, Avg fold changes vs control [1] | FKBP11 (219118_at) mRNA expression, Avg fold changes vs control [1] | HLA-C (211799_x_at) mRNA expression, Avg fold changes vs control [1] | STAT3 (208992_s_at) mRNA expression, Avg fold changes vs control [1] | C1S (208747_s_at) avg fold change vs control [2] | ISGF3G (203882_at) avg fold change vs control [2] | BCL3 (204908_s_at) avg fold change vs control ([2]; 2 weeks) | CD8A (205758_at) avg fold change vs control ([2]; 2 weeks) | CMAH (210571_s_at) avg fold change vs control ([2]; 2 weeks) | CTSK (202450_s_at) avg fold change vs control ([2]; 2 weeks)
3.7 fold: CXCL11 (210163_at) avg fold change vs control ([2]; 2 weeks)
2.0 fold: PTPN7 (204852_s_at) mRNA expression, Avg fold changes vs control [1] | AIF1 (213095_x_at) avg fold change vs control [2] | CCL19 (210072_at) avg fold change vs control [2]
1.6 fold: BTN3A3 (204821_at) avg fold change vs control [2] | C4A (208451_s_at) avg fold change vs control [2] | HLA-DQB1 (211656_x_at) avg fold change vs control [2] | CXCL11 (211122_s_at) avg fold change vs control ([2]; 2 weeks)
3.8 fold: LRMP (204674_at) avg fold change vs control [2]
3.6 fold: LAIR1 (208071_s_at) avg fold change vs control [2]
1.1 fold: GP6 (220336_s_at) mRNA expression, Avg fold changes vs control [1] | HLA-A (210514_x_at) mRNA expression, Avg fold changes vs control [1] | STAT1 (200887_s_at) mRNA expression, Avg fold changes vs control [1] | STAT1 (AFFX-HUMISGF3A/M97935_3_at) mRNA expression, Avg fold changes vs control [1] | TMSB10 (217733_s_at) mRNA expression, Avg fold changes vs control [1] | C2 (203052_at) avg fold change vs control [2] | CX3CR1 (205898_at) avg fold change vs control [2] | ECGF1 (204858_s_at) avg fold change vs control [2] | IRF1 (202531_at) avg fold change vs control [2] | BTN3A3 (38241_at) avg fold change vs control ([2]; 2 weeks) | C1QB (202953_at) avg fold change vs control ([2]; 2 weeks) | CD14 (201743_at) avg fold change vs control ([2]; 2 weeks) | CXCL10 (204533_at) avg fold change vs control ([2]; 2 weeks) | CXCL12 (209687_at) avg fold change vs control ([2]; 2 weeks)
1.7 fold: CD48 (204118_at) mRNA expression, Avg fold changes vs control [1] | CYBB (203922_s_at) mRNA expression, Avg fold changes vs control [1] | PIK3CD (203879_at) mRNA expression, Avg fold changes vs control [1] | BTN3A1 (207485_x_at) avg fold change vs control [2] | HLA-DRB1 (215193_x_at) avg fold change vs control [2]
1.3 fold: B2M (216231_s_at) mRNA expression, Avg fold changes vs control [1] | CDC2 (210559_s_at) mRNA expression, Avg fold changes vs control [1] | FCER1G (204232_at) mRNA expression, Avg fold changes vs control [1] | HLA-A (213932_x_at) mRNA expression, Avg fold changes vs control [1] | B2M (201891_s_at) avg fold change vs control [2] | CCL3 (205114_s_at) avg fold change vs control [2] | CD74 (209619_at) avg fold change vs control [2] | FCGR3A (204006_s_at) avg fold change vs control [2] | TNFSF10 (202687_s_at) avg fold change vs control [2] | TNFSF10 (202688_at) avg fold change vs control [2] | BTN3A3 (204820_s_at) avg fold change vs control ([2]; 2 weeks) | CCL8 (214038_at) avg fold change vs control ([2]; 2 weeks) | CTSC (201487_at) avg fold change vs control ([2]; 2 weeks)
1.2 fold: BTN2A2 (205298_s_at) mRNA expression, Avg fold changes vs control [1] | HLA-E (200904_at) mRNA expression, Avg fold changes vs control [1] | HLA-F (221978_at) mRNA expression, Avg fold changes vs control [1] | PRKCBP1 (209048_s_at) mRNA expression, Avg fold changes vs control [1] | PRKCBP1 (209049_s_at) mRNA expression, Avg fold changes vs control [1] | SIGIRR (52940_at) mRNA expression, Avg fold changes vs control [1] | CASP1 (211367_s_at) avg fold change vs control [2] | CCNB2 (202705_at) avg fold change vs control [2] | DUSP6 (208893_s_at) avg fold change vs control [2] | 209813_x_at avg fold change vs control ([2]; 2 weeks) | CASP1 (209970_x_at) avg fold change vs control ([2]; 2 weeks) | CTSS (202902_s_at) avg fold change vs control ([2]; 2 weeks) | CYBA (203028_s_at) avg fold change vs control ([2]; 2 weeks) | CYBB (203923_s_at) avg fold change vs control ([2]; 2 weeks)
2.1 fold: IRF7 (208436_s_at) avg fold change vs control [2]
2.5 fold: TRB@ (210915_x_at) mRNA expression, Avg fold changes vs control [1]
0.9 fold: BCL6 (215990_s_at) mRNA expression, Avg fold changes vs control [1] | CCR1 (205098_at) mRNA expression, Avg fold changes vs control [1] | EMP3 (203729_at) mRNA expression, Avg fold changes vs control [1] | ICAM1 (202637_s_at) mRNA expression, Avg fold changes vs control [1] | IL13RA1 (210904_s_at) mRNA expression, Avg fold changes vs control [1] | TCIRG1 (204158_s_at) mRNA expression, Avg fold changes vs control [1] | TMPO (209753_s_at) mRNA expression, Avg fold changes vs control [1] | CCL5 (1405_i_at) avg fold change vs control [2] | GZMB (210164_at) avg fold change vs control [2] | C1R (212067_s_at) avg fold change vs control ([2]; 2 weeks)
0.8 fold: ACE (209749_s_at) mRNA expression, Avg fold changes vs control [1] | FKBP11 (219117_s_at) mRNA expression, Avg fold changes vs control [1] | THY1 (213869_x_at) mRNA expression, Avg fold changes vs control [1] | CLU (208791_at) avg fold change vs control ([2]; 2 weeks)
1.5 fold: CD2 (205831_at) mRNA expression, Avg fold changes vs control [1] | HCLS1 (202957_at) mRNA expression, Avg fold changes vs control [1] | HEM1 (209734_at) mRNA expression, Avg fold changes vs control [1] | TNFRSF21 (218856_at) mRNA expression, Avg fold changes vs control [1] | AIF1 (209901_x_at) avg fold change vs control [2] | C1QA (218232_at) avg fold change vs control ([2]; 2 weeks) | CCL18 (209924_at) avg fold change vs control ([2]; 2 weeks)
2.4 fold: TRB@ (213193_x_at) mRNA expression, Avg fold changes vs control [1]
